# Results: patent US11400096B2, “Small molecules for the treatment of autoimmune disorders” (Board of Regents, The University of Texas System, priority 2017, dated 2022)
# Tested on: IL-17
# Test: Inhibition of IL-17 secretion by compounds
# Format: cell-based
row,SMILES,IL-17 Secretion Inhibition [%]
1,CCCn1c(=O)c2nc(-c3ccc(OCc4nc5cc(C)ccc5[nH]4)cc3)[nH]c2n(CCC)c1=O [Compound P5],64.3
2,CCCn1c(=O)c2nc(-c3ccc(OCc4nc5ccccc5[nH]4)cc3)[nH]c2n(CCC)c1=O [Compound P2],54.1
3,CCOc1nc2c(N)ncnc2n1CC1CC1 [Compound P8],45.4
